Reference: PubChem BioAssay AID248 (DTP/NCI, 2004)
Where “and” joins values, the source holds several entries; their conditions need not be identical. Equal values may be shown once. Inconclusive results and toxic doses are left out.

Test system: L1210 leukemia ip in BDF1 mice, survival T/C
Assay: NCI In Vivo Anticancer Drug Screen. Data for tumor model L1210 Leukemia (intraperitoneal) in B6D2F1 (BDF1) mice
Conditions: endpoint: mean survival time, higher = longer survival
Method in brief: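 Transplantable tumor model; survival measured in treated vs vehicle control mice. Value = treated/control.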

[1] = dose: 50.0 mg/kg/injection, schedule: Q01DX009 (ip), vehicle: saline with Tween-80
[2] = dose: 100.0 mg/kg/injection, schedule: Q04DX003 (ip), vehicle: Klucel (hydroxypropylcellulose) (HPC)
[3] = dose: 200.0 mg/kg/injection, schedule: Q01DX009 (ip), vehicle: saline with Tween-80
[4] = dose: 200.0 mg/kg/injection, schedule: Q04DX003 (ip), vehicle: Klucel (hydroxypropylcellulose) (HPC)
[5] = dose: 50.0 mg/kg/injection, schedule: Q01DX001 (ip), vehicle: saline
[6] = dose: 100.0 mg/kg/injection, schedule: Q01DX001 (ip), vehicle: saline
[7] = dose: 200.0 mg/kg/injection, schedule: Q01DX001 (ip), vehicle: saline
[8] = dose: 400.0 mg/kg/injection, schedule: Q01DX001 (ip), vehicle: saline
[9] = dose: 100.0 mg/kg/injection, schedule: Q04DX003 (ip), vehicle: saline with Tween-80
[10] = dose: 200.0 mg/kg/injection, schedule: Q04DX003 (ip), vehicle: saline with Tween-80
[11] = dose: 100.0 mg/kg/injection, schedule: Q01DX009 (ip), vehicle: Klucel (hydroxypropylcellulose) (HPC)
[12] = dose: 200.0 mg/kg/injection, schedule: Q01DX009 (ip), vehicle: Klucel (hydroxypropylcellulose) (HPC)
[13] = dose: 400.0 mg/kg/injection, schedule: Q01DX009 (ip), vehicle: Klucel (hydroxypropylcellulose) (HPC)
[14] = dose: 400.0 mg/kg/injection, schedule: Q04DX003 (ip), vehicle: Klucel (hydroxypropylcellulose) (HPC)
[15] = dose: 100.0 mg/kg/injection, schedule: Q01DX009 (ip), vehicle: saline with Tween-80

Compound: CC1CNC(c2ccc(NC(=O)c3ccc(C(=O)Nc4ccc(C5=NC(C)CN5)cc4)c(NC(=O)Nc4cccc(C5=NC(C)CN5)c4)c3)cc2)=N1 (stereo not given)
- T/C (dose: 1.88 mg/kg/injection, schedule: Q01DX Z (ip), vehicle: saline): 116 % of control
- T/C (dose: 3.75 mg/kg/injection, schedule: Q01DX Z (oral), vehicle: saline): 103 % of control
- T/C (dose: 7.5 mg/kg/injection, schedule: Q01DX Z (ip), vehicle: saline): 153 % of control
- T/C (dose: 7.5 mg/kg/injection, schedule: Q01DX Z (oral), vehicle: saline): 106 % of control
- T/C (dose: 15.0 mg/kg/injection, schedule: Q01DX Z (oral), vehicle: saline): 101 % of control
- T/C (dose: 30.0 mg/kg/injection, schedule: Q01DX Z (oral), vehicle: saline): 117 % of control
- T/C (dose: 62.5 mg/kg/injection, schedule: Q01DX010 (oral), vehicle: saline): 99 % of control
- T/C (dose: 125.0 mg/kg/injection, schedule: Q01DX010 (oral), vehicle: saline): 100 % of control
- T/C (dose: 250.0 mg/kg/injection, schedule: Q01DX010 (oral), vehicle: saline): 92 % of control

Compound: CCOC(=O)CC1NCCC2C1CCC(OC)C2OC (stereo not given)
- T/C [1]: 106 % of control
- T/C [2]: 98 % of control
- T/C [3]: 95 % of control
- T/C [4]: 104 % of control

Compound: CN(C)c1ccc(-c2cc(C(=O)O)c3cc(I)ccc3n2)c(Cl)c1
- T/C (dose: 75.0 mg/kg/injection, schedule: Q01DX001 (ip), vehicle: saline): 88 % of control
- T/C (dose: 150.0 mg/kg/injection, schedule: Q01DX001 (ip), vehicle: saline): 86 % of control
- T/C (dose: 300.0 mg/kg/injection, schedule: Q01DX001 (ip), vehicle: saline): 91 % of control

Compound: CC(C)CN=C(N)N=C(N)N
- T/C (dose: 50.0 mg/kg/injection, schedule: Q01DX009 (ip), vehicle: water): 95 % of control
- T/C (dose: 50.0 mg/kg/injection, schedule: Q04DX003 (ip), vehicle: water): 102 % of control
- T/C (dose: 100.0 mg/kg/injection, schedule: Q01DX001 (ip), vehicle: water): 96 % of control
- T/C (dose: 100.0 mg/kg/injection, schedule: Q01DX009 (ip), vehicle: water): 97 % of control
- T/C (dose: 100.0 mg/kg/injection, schedule: Q04DX003 (ip), vehicle: water): 104 % of control
- T/C (dose: 200.0 mg/kg/injection, schedule: Q01DX001 (ip), vehicle: water): 103 % of control
- T/C (dose: 200.0 mg/kg/injection, schedule: Q04DX003 (ip), vehicle: water): 107 % of control

Compound: NC(=S)N/N=C\c1ncnc2ccccc12
- T/C (dose: 2.1 mg/kg/injection, schedule: Q03HX032 (ip), vehicle: saline with Tween-80): 101 % of control
- T/C (dose: 3.2 mg/kg/injection, schedule: Q03HX032 (ip), vehicle: saline with Tween-80): 107 % of control
- T/C (dose: 4.8 mg/kg/injection, schedule: Q03HX032 (ip), vehicle: saline with Tween-80): 118 % of control
- T/C (dose: 6.25 mg/kg/injection, schedule: Q01DX009 (ip), vehicle: saline): 115 % of control
- T/C (dose: 7.2 mg/kg/injection, schedule: Q03HX032 (ip), vehicle: saline with Tween-80): 91 % of control
- T/C [5]: 100 % of control
- T/C (dose: 50.0 mg/kg/injection, schedule: Q01DX009 (ip), vehicle: saline): 117 % of control
- T/C [6]: 112 % of control
- T/C [7]: 118 % of control
- T/C [8]: 112 % of control

Compound: COC(F)(F)C(Cl)Cl
- T/C [6]: 95 % of control
- T/C [7]: 101 % of control
- T/C [8]: 95 % of control

Compound: COc1cc(NC(=O)CC(C)=O)c(OC)cc1Cl
- T/C [9]: 100 % of control
- T/C [10]: 102 % of control
- T/C (dose: 400.0 mg/kg/injection, schedule: Q04DX003 (ip), vehicle: saline with Tween-80): 102 % of control

Compound: O=C(NCCBr)Nc1ccc2c(c1)OCO2
- T/C [11]: 94 % of control
- T/C [2]: 111 % of control
- T/C [12]: 102 % of control
- T/C [4]: 101 % of control
- T/C [13]: 96 % of control
- T/C [14]: 108 % of control

Compound: O=C(O)CCC1COc2ccccc2O1 (stereo not given)
- T/C [5]: 100 % of control
- T/C [6]: 108 % of control
- T/C [7]: 114 % of control
- T/C [8]: 100 % of control

Compound: CCCC(C)(O)C#CC(C)(O)CCC (stereo not given)
- T/C [1]: 97 % of control
- T/C [15]: 95 % of control
- T/C [9]: 100 % of control
- T/C [3]: 97 % of control
- T/C [10]: 95 % of control

Compound: CC(=O)N1CC(n2nnc3c(N)ncnc32)CC1CO (stereo not given)
- T/C (dose: 12.5 mg/kg/injection, schedule: Q04DX002 (ip), vehicle: saline with Tween-80): 98 % of control
- T/C (dose: 25.0 mg/kg/injection, schedule: Q04DX002 (ip), vehicle: saline with Tween-80): 102 % of control
- T/C (dose: 50.0 mg/kg/injection, schedule: Q04DX002 (ip), vehicle: saline with Tween-80): 94 % of control

Compound: Cc1ccc(CSc2ssc(=S)c2-c2ccccc2)cc1
- T/C [15]: 101 % of control
- T/C (dose: 100.0 mg/kg/injection, schedule: Q04DX003 (ip), vehicle: acetone): 99 % of control
- T/C [3]: 97 % of control
- T/C (dose: 200.0 mg/kg/injection, schedule: Q04DX003 (ip), vehicle: acetone): 98 % of control
- T/C (dose: 400.0 mg/kg/injection, schedule: Q01DX009 (ip), vehicle: saline with Tween-80): 95 % of control
- T/C (dose: 400.0 mg/kg/injection, schedule: Q04DX003 (ip), vehicle: acetone): 91 % of control

Compound: CCOC(=O)C(C)CC(=O)c1ccccc1 (stereo not given)
- T/C [1]: 106 % of control
- T/C [15]: 107 % of control
- T/C (dose: 100.0 mg/kg/injection, schedule: Q04DX002 (ip), vehicle: saline with Tween-80): 95 % of control
- T/C (dose: 200.0 mg/kg/injection, schedule: Q04DX002 (ip), vehicle: saline with Tween-80): 95 % of control

Compound: O=C(O)COc1ccc(F)cn1
- T/C (dose: 100.0 mg/kg/injection, schedule: Q04DX002 (ip), vehicle: Klucel (hydroxypropylcellulose) (HPC)): 101 % of control
- T/C (dose: 200.0 mg/kg/injection, schedule: Q04DX002 (ip), vehicle: Klucel (hydroxypropylcellulose) (HPC)): 93 % of control
- T/C (dose: 400.0 mg/kg/injection, schedule: Q04DX002 (ip), vehicle: Klucel (hydroxypropylcellulose) (HPC)): 114 % of control

Compound: C=CCP(c1ccccc1)c1ccccc1
- T/C (dose: 100.0 mg/kg/injection, schedule: Q04DX002 (ip), vehicle: saline): 98 % of control
- T/C (dose: 200.0 mg/kg/injection, schedule: Q04DX002 (ip), vehicle: saline): 91 % of control

Compound: Cc1ccc(NC(=S)NC(=O)COc2ccccc2)cc1C
- T/C (dose: 50.0 mg/kg/injection, schedule: Q01DX001 (ip), vehicle: other): 92 % of control
- T/C (dose: 50.0 mg/kg/injection, schedule: Q01DX009 (ip), vehicle: other): 96 % of control and 108 % of control
- T/C (dose: 50.0 mg/kg/injection, schedule: Q04DX002 (ip), vehicle: other): 101 % of control and 116 % of control
- T/C (dose: 50.0 mg/kg/injection, schedule: Q04DX003 (ip), vehicle: other): 95 % of control
- T/C (dose: 100.0 mg/kg/injection, schedule: Q01DX001 (ip), vehicle: other): 97 % of control
- T/C (dose: 100.0 mg/kg/injection, schedule: Q01DX009 (ip), vehicle: other): 100 % of control and 86 % of control
- T/C (dose: 100.0 mg/kg/injection, schedule: Q04DX003 (ip), vehicle: other): 92 % of control
- T/C (dose: 200.0 mg/kg/injection, schedule: Q01DX001 (ip), vehicle: other): 101 % of control
- T/C (dose: 200.0 mg/kg/injection, schedule: Q01DX009 (ip), vehicle: other): 96 % of control and 90 % of control

Compound: CC(/C=C/c1ccc2c(c1)OCO2)[N+](=O)[O-] (stereo not given)
- T/C (dose: 100.0 mg/kg/injection, schedule: Q01DX001 (ip), vehicle: Klucel (hydroxypropylcellulose) (HPC)): 103 % of control
- T/C (dose: 200.0 mg/kg/injection, schedule: Q01DX001 (ip), vehicle: Klucel (hydroxypropylcellulose) (HPC)): 103 % of control
- T/C (dose: 400.0 mg/kg/injection, schedule: Q01DX001 (ip), vehicle: Klucel (hydroxypropylcellulose) (HPC)): 106 % of control

Compound: CCC/C(=C\C(=O)O)CC
- T/C [11]: 94 % of control
- T/C [2]: 93 % of control
- T/C [12]: 96 % of control
- T/C [4]: 90 % of control
- T/C [13]: 96 % of control
- T/C [14]: 98 % of control
